Tests used:
[1] = biological target: SARS-CoV-2 Main Protease (SARS-CoV-2) (UniProt P0DTD1)
trypsin = trypsin (UniProt P07477)
[2] = biological target: SARS-CoV-2 Main Protease (SARS-CoV-2) (UniProt P0DTD1); remark: listed apart in the source

Chain of trypsin (P07477 whole entry, looked up): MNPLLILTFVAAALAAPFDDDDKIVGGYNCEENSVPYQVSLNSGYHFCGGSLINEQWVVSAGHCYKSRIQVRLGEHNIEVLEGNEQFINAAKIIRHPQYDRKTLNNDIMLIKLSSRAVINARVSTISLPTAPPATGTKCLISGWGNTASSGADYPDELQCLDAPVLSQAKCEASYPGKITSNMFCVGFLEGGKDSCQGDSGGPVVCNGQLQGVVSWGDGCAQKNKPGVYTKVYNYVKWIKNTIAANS

Row | Compound | relative solubility at 20 uM | relative solubility at 100 uM | inhibition ([1]; 20.0 µM) | IC50 (trypsin) | inhibition ([2]; 20.0 µM) | inhibition ([2]; 50.0 µM) | IC50 [1] | inhibition ([1]; 50.0 µM) | IC50 [2]
1 | O=C(CCl)N1CCCc2cc(NCc3ccc(F)cc3Cl)ccc21 | 0.81 | 0.39 | 47.9% | 51.8 µM | 25.3% | 52.5% |  |  | 
2 | COc1cc(CN2CCN(C(=O)CCl)CC2)c2ccccc2c1 | 1 | 0.95 |  | 81.7 µM | 82.8% | 90.9% | 1.62 µM | 100% | 
3 | C=CC(=O)N(c1ccc(C2(C)CC2)cc1)C(C(=O)Nc1ccc(Br)cc1)c1cccnc1 (stereo not given) | 1 | 1.01 | 2.51% | 58.2 µM |  | 47.1% | 19.4 µM | 67.8% | 
4 | COc1ccccc1OCCNC(=O)c1cc(=O)[nH]c2cc(F)ccc12 | 0.88 | 0.66 |  |  | -6.6% | 51.7% |  | 9.64% | 
5 | C=CC(=O)N1CCC(N(Cc2ccccc2C#N)C2CCC(O)CC2)CC1 (stereo not given) | 0.99 | 0.99 |  |  | -64% | -8.67% |  | 0% | 
6 | COc1ccc(N2CCN(C(=O)c3cc(=O)[nH]c4ccccc34)CC2)cc1 | 1 | 1 |  |  | 61.4% | 81.7% | 95.7 µM | 51.4% | 
7 | CC(NC(=O)Nc1cccc(N2CCCCC2=O)c1)c1ccn[nH]1 (stereo not given) | 1 | 1 |  |  | -8.95% | -2.76% |  | 0% | 
8 | CNC(=O)OC1CCN(C(=O)c2ccccc2)CC1 | 1 | 1 | 0% |  |  | 19.2% |  | 0% | 
9 | CCC(CC)C(=O)C(C#N)C(=O)Nc1ccc(F)cc1 (stereo not given) | 1 | 1 | 0% |  |  | -16.2% |  | 0% | 
10 | COc1ccccc1OCC(C)NC(=O)c1cc(=O)[nH]c2cc(F)ccc12 (stereo not given) | 1 | 0.99 |  |  | 46.9% | 78.4% |  | 22% | 33 µM
11 | O=C(CCl)N1CCN(Cc2cc(Cl)ccc2CNC(=O)N2CCOCC2)CC1 | 0.98 | 0.94 |  | 15.8 µM | 77.2% | 79% | 5.55 µM | 93.3% | 
12 | Cc1ccncc1NC(=O)Nc1cccc(Cl)c1 | 0.99 | 0.96 | 25.6% |  | 32.1% | 58.7% | 45.7 µM | 64.1% | 
13 | Cc1cccc(NC(=O)C(C#N)C(=O)C2CC2)c1 (stereo not given) | 0.99 | 0.99 | 0.422% |  |  | 5.88% |  | 0.517% | 
14 | Cc1ccc(NCc2cc(NC(=O)OC(C)(C)C)ccc2Br)cn1 | 0.9 | 0.7 |  |  | -3.3% | 9.52% |  | 35.9% | 
15 | CO[C@H](C)C(=O)Nc1cnccc1C (stereo in doubt) | 1.01 | 1 |  |  | 4.95% | 8.97% |  | 6.56% | 
16 | O=C(Cc1c[nH]c2ncccc12)N1CCC(N2CCCS2(=O)=O)CC1 | 1 | 1.01 | 0% |  | 18.5% | -1.92% |  |  | 
17 | NS(=O)(=O)c1ccc(N2CCC(c3ccsc3)CC2)cc1 | 0.98 | 0.76 | 37.4% |  | 7.4% | 17.1% |  | 42% | 
18 | Cc1nnc(C2Cc3ccccc3CN2C(=O)CCl)o1 (stereo not given) | 0.99 | 0.99 |  |  | 16.3% | 41.9% |  | 18.1% | 
19 | Cc1ccncc1-c1nc(-c2cccc(Cl)c2)no1 | 1 | 0.99 |  |  | 3.58% | 5.25% |  | 22.9% | 
20 | CCOC(=O)[C@@H](CCc1ccccc1)N[C@H](C)C(=O)Nc1cccc(CN2CCCC2)c1 (stereo in doubt) | 0.99 | 0.97 |  |  | -3.55% | 1.33% |  | 6.6% | 
21 | O=C(NCCOc1ccccc1)c1cc(=O)[nH]c2ccccc12 | 1 | 1 |  |  | 12.7% | 54.6% |  | 3.05% | 
22 | N#CC(C(=O)Nc1cccc(Cl)c1)C(=O)c1cccs1 (stereo not given) | 1 | 1 | 0% |  |  | 31.8% |  | 0% | 
23 | C#CCN1CCN(C(=O)CCl)CC1 | 1 | 1 | 6.86% |  |  | 27.2% |  | 7.12% | 

Row | Compound | relative solubility at 20 uM | relative solubility at 100 uM | inhibition ([1]; 20.0 µM) | IC50 (trypsin) | inhibition ([2]; 20.0 µM) | inhibition ([2]; 50.0 µM) | IC50 [1] | inhibition ([1]; 50.0 µM) | IC50 [2]
24 | C=CC(=O)N(C1COC2(CCC2)C1)C(C(=O)NC(C)(C)C)c1cccnc1 (stereo not given) | 0.97 | 0.96 | 0% |  | 12.6% | 13.4% |  |  | 
25 | Cc1ccncc1NC(=O)CC(O)C1CC1 (stereo not given) | 1 | 1.01 |  |  | -48% | 1.39% |  | 2.72% | 
26 | CC(C)[C@@H](C#N)NS(=O)(=O)c1ccc(CF)cc1 (stereo in doubt) | 1 | 1 | 1.55% |  |  | -14% |  | 22.1% | 
27 | N#Cc1ccc(NC(=O)Nc2cccnc2)cc1 | 1 | 1 | 0% |  | 5.82% | 11.6% |  |  | 
28 | Cc1cccc(CS(=O)(=O)N2CCC(C(N)=O)CC2)c1 | 1.01 | 1.01 |  |  | -20.4% | 0.138% |  | 0% | 
29 | COc1ccccc1OCCNC(=O)c1cc(=O)[nH]c2ccccc12 | 0.99 | 0.96 | 70.1% |  | 83.7% | 92.7% | 3.46 µM | 83.8% | 7.23 µM
30 | Cc1ccccc1C(C(=O)NCC(O)Cn1ccnn1)c1ccccc1 (stereo not given) | 1 | 1.01 | 0% |  | 0.424% | 4.24% |  |  | 
31 | O=C1Nc2cc(Br)ccc2C1=O | 1 | 1.01 |  |  | -5.86% | -4.62% |  | 23.8% | 
32 | Cc1cc(C)cc(NC(=O)Cn2cncc2C)c1 | 1 | 1 |  |  | -2.21% | 2.72% |  | 0% | 
33 | CCCN(CC1COc2ccccc2O1)C(=O)c1cc(=O)[nH]c2ccc(Cl)cc12 (stereo not given) | 0.98 | 0.89 |  |  | -8.21% | -15.6% |  | 0% | 
34 | Cc1ccncc1NC(=O)c1ccc(NC(=O)Nc2cccnc2)cc1 | 1 | 0.99 | 3.1% |  |  | -23% |  | 0% | 
35 | O=C(O)[C@@H](Cc1nc(=O)cc[nH]1)NC[C@@H]1C[C@@H]2C=C[C@H]1C2 (stereo in doubt) | 1 | 1 |  |  | 13.7% | 26.4% |  | 29.5% | 
36 | CC(C(=O)Nc1cccc(OC2CC(=O)N2)c1)c1cnccn1 (stereo not given) | 1 | 1 | 0% |  |  | 17% |  | 0% | 
37 | O=C(Cc1cccc(Cl)c1)Nn1cnnc1 | 1 | 1 |  |  | -9.88% | -21.6% |  | 0% | 
38 | CS(=O)(=O)c1oc(-c2ccc(F)cc2)nc1S(=O)(=O)c1ccc(Cl)cc1 | 0.78 | 0.45 |  |  | 10.8% | 11% |  | 0% | 
39 | C=CC(=O)N(c1cc(C(C)(C)C)n[nH]1)C(C(=O)Nc1ccc(Cl)cc1)c1cccnc1 (stereo not given) | 0.78 | 0.68 | 0% |  | 6.12% | 19.5% |  |  | 
40 | O=C(NCc1cccnc1)Nc1cccc(OCC(F)F)n1 | 1 | 1 | 0% |  | 3.33% | 8.28% |  | 4.42% | 
41 | O=C(CCl)N1CCN(Cc2cccc(Cl)c2)CC1 | 1 | 1 | 99.8% |  |  | 108% | 0.545 µM | 100% | 2.54 µM
42 | O=C(COc1ccccc1)NCCc1ccccc1 | 1 | 1 | 0% |  | -0.178% | -0.0738% |  | 0% | 
43 | O=C(Cc1c[nH]c2ncccc12)Nc1cccc(Cl)c1 | 0.99 | 0.97 | 0% |  | 5.95% | 9.34% |  |  | 
44 | O=C(NCC1COc2ccccc2O1)c1cc(=O)[nH]c2cc(F)ccc12 (stereo not given) | 0.98 | 0.62 |  |  | -0.372% | -2.5% |  | 3.98% | 
45 | Cc1ccncc1NS(=O)(=O)Cc1cccc(Cl)c1 | 1 | 0.99 |  |  | 4.3% | 9.77% |  | 19% | 
46 | Cn1cnnc1CNC(=O)Nc1cc(C(F)(F)F)c[nH]c1=O | 1 | 1 |  |  | 7.84% | 14.8% |  | 3.33% | 

Row | Compound | relative solubility at 20 uM | relative solubility at 100 uM | inhibition ([1]; 20.0 µM) | IC50 (trypsin) | inhibition ([2]; 20.0 µM) | inhibition ([2]; 50.0 µM) | IC50 [1] | inhibition ([1]; 50.0 µM) | IC50 [2]
47 | CC(=O)N1CCN(Cc2cn(-c3cccc(S(N)(=O)=O)c3)nn2)CC1 | 0.95 | 0.97 | 2.3% |  | -2.75% | 1.36% |  | 5.73% | 
48 | CS(=O)(=O)Nc1cccc(C(=O)OCC(=O)Nc2cccc(N3CCCC3=O)c2)c1 | 0.98 | 0.99 |  |  | 5.16% | 3.7% |  | 0% | 
49 | Cc1cccc(NC2CCN(c3ccc(S(N)(=O)=O)cc3)CC2)c1 | 0.96 | 0.87 | 39.4% |  | -2.59% | -0.838% |  | 45.9% | 
50 | CC(OCC1CCCCO1)C(=O)N(CCc1ccccc1)Cc1cccnc1 (stereo not given) | 1 | 1 | 0% |  |  | -20.6% |  | 0% | 
51 | C=CC(=O)N(c1ccc2ncsc2c1)C(C(=O)Nc1ccc(OC)cc1)c1cccnc1 (stereo not given) | 0.92 | 0.87 | 0% |  | 4.02% | 15.4% |  |  | 
52 | Cc1ccc(C)c(S(=O)(=O)N2CCN(C(=O)CCl)CC2)c1 | 0.99 | 0.98 | 90.8% |  |  | 101% |  | 96.3% | 
53 | CC(C)(C)CC(=O)C(C#N)C(=O)Nc1ccccc1 (stereo not given) | 1 | 1 | 2.52% |  |  | 21.6% |  | 0% | 
54 | CC(C)(Cn1c(C2CCC(=O)N2)nnc1N1CCCC(C(N)=O)C1)c1ccccc1F (stereo not given) | 1 | 0.99 |  |  | -2.8% | 6.51% |  | 29.4% | 
55 | C=CC(=O)N(c1ccc(C(C)(C)C)cc1)C(C(=O)Nc1ccc(OC)cc1OC)c1cccnc1 (stereo not given) | 0.98 | 0.84 | 5.03% |  | 48.9% | 41.6% |  | 45.9% | 
56 | CC(=O)N1CCN(S(=O)(=O)c2ccsc2)CC1 | 0.99 | 1 | 0% |  |  | -20.6% |  | 3.62% | 
57 | COC1CCN(c2ccc(S(N)(=O)=O)cc2)CC1 | 1 | 1 | 29.7% |  | 2.98% | 6.82% |  | 35.4% | 
58 | O=C1CC[C@@H](C(=O)Nc2cccc(Cl)c2)CN1 (stereo in doubt) | 1 | 1 |  |  | -24% | -3.68% |  | -12% | 
59 | O=C(Cc1cccc(Cl)c1)Nc1cnns1 | 0.99 | 0.99 |  |  | 4.12% | 3.34% |  | 48.7% | 
60 | CCN1CCN(Cc2ccccc2CNC2=NC[C@@H](C3CCCC3)N2)CC1 (stereo in doubt) | 1 | 1 |  |  | -1.16% | -20.8% |  | -30.8% | 
61 | O=C(Nc1cnccc1CO)[C@@H]1COc2ccc(Cl)cc21 (stereo in doubt) | 1.01 | 1 |  |  | 46.1% | 73.1% | 18.4 µM | 58.6% | 
62 | O=C1C(=O)N(Cc2ccccc2)c2cc(Br)ccc21 | 0.99 | 0.59 |  |  | 0.852% | -0.164% |  | 0% | 
63 | NS(=O)(=O)c1ccc2c(c1)C(=O)C(=O)N2 | 1.01 | 1 |  |  | -2.6% | -3.21% |  | 37.1% | 
64 | CN(C)C/C=C/C(=O)Nc1c[nH]c2ccccc12 | 1 | 1 | 0% |  | 5.8% | 22.5% |  |  | 
65 | C=CC(=O)N(c1ccc(C(C)(C)C)cc1)C(C(=O)Nc1ccc2c(c1)OCO2)c1cccnc1 (stereo not given) |  |  |  | 72.5 µM | 41.1% | 60.4% | 62.1 µM | 100% | 
66 | CCN(CC1COc2ccccc2O1)C(=O)c1cc(=O)[nH]c2ccc([N+](=O)[O-])cc12 (stereo not given) | 1 | 1 |  |  | 2.87% | -7.35% |  | 0% | 
67 | C=CC(=O)N(c1ccc(C(C)(C)C)cc1)C(C(=O)NC(C)(C)C)c1cncc2ccccc12 (stereo not given) | 0.85 | 0.56 | 0% |  | -17.7% | -17.5% |  | 0% | 
